Data taken from patent publication US20230183742A1, “Viral Vector Production” (Oxford BioMedica (UK) Limited, priority 2020, published 2023).
Where “and” joins values, the source holds several entries; their conditions need not be identical. Equal entries are not always repeated. Entries after “also recorded” stand apart in the source; their conditions may differ. Where two headings read alike, the source gives them in different places.

Assays:
Format in all cases: cell-based, human
HEK293T cells [1] = tested on: HEK293T cells
HEK293T cells [2] = tested on: HEK293T cells; remark: listed apart in the source
HEK293T cells [3] = conditions: single agent, FIG. 2; for concentration giving optimum vector production: induction 24 h post transfection
HEK1.65s cells [4] = conditions: for inducing effect on LV titre among HDAC inhibitors: HEK1.65s, 24-well plate, FIG. 7, sodium valproate at 3 mM, valeric acid at 10 mM
HEK1.65s cells [5] = test: Example 3 Experiment 2: sodium butyrate x prostratin DOE in suspension HEK1.65s, 24-well plate, GFP titration and JMP model; conditions: for optimum predicted concentration of combined induction agents: prediction profiler, FIG. 9C
HEK1.65s cells [6] = test: Example 3: cell viability measurements of induced HEK1.65s cells (Table 6); conditions: for Cell Viability (%): HEK1.65s; for Δ (cell viability vs No Induction Control): vs no induction control 78.8
HEK1.65s cells [7] = conditions: 11 μM prostratin + 8 mM sodium butyrate, 40 mL shake flask; FACS and integration QPCR, FIGS. 10A & B
HEK1.65s cells [8] = test: Example 4: 40 mL shake flask vector production, titre by duplex QPCR integration assay; conditions: VRC vs VRC+55 nM prostratin, FIG. 10B
[9] = tested on: HEK293T.1-65s suspension cells
HEK1.65s cells [10] = tested on: HEK1.65s cells
HEK1.65s cells [11] = tested on: HEK1.65s cells; remark: listed apart in the source
[12] = tested on: suspension (serum-free) HEK293T cells; test: Example 8: GFP reporter expression from constitutive promoters in suspension HEK293T with or without prostratin, flow cytometry; conditions: 11 μM prostratin with 10 mM sodium butyrate, two pDNA input levels, FIG. 18
HEK293T cells [13] = test: FIG. 13/14: standard or MSD-mutated lentiviral vector production in HEK293T with modified U1 snRNA, titration and RT-PCR of aberrant splice product; conditions: modified U1 snRNA co-expressed during production of standard and MSD-mutated LVs
[14] = 11 μM prostratin with 10 mM sodium butyrate
[15] = 256U1 snRNA expression combined with 11 μM prostratin at induction
[16] = single titre enhancing agent (256U1 expression or 11 μM prostratin), 10 mM sodium butyrate

Molecule: CC(=O)NCCCCCCNC(C)=O [HMBA]
- titre relative to the no-induction control (HEK293T cells [1]): approximately 4 fold
- effect on titre of combination with HDAC inhibitors (HEK293T cells [1]; compared with HDAC inhibitor alone): no or only marginal improvements in titres; also recorded: did not produce any positive effects on titre
- optimum concentration for vector induction (HEK293T cells [1]; single agent, FIG. 4): 16 mM
- effect on titre in combination with prostratin and sodium butyrate (HEK293T cells [2]; 8 mM HMBA, compared to conditions where HMBA was excluded): notable decrease
- effect on titre in combination with alternate HDAC inhibitors (HEK293T cells [2]; with sodium valproate, valeric acid or SAHA, FIG. 6): negative effects on titre

Molecule: CC(=O)N[C@@H](CS)C(=O)O [NAC, N-Acetyl Cysteine]
- effect on vector titre (HEK293T cells [3]): no positive impact on titre

Molecule: CCCCCCCCCCCCCC(=O)O[C@@H]1[C@@H](C)[C@@]2(O)[C@@H](C=C(CO)C[C@]3(O)C(=O)C(C)=C[C@@H]23)[C@@H]2C(C)(C)[C@]12OC(C)=O [PMA, Phorbol 12-myristate 13-acetate]
- effect on vector titre (HEK293T cells [3]): highest vector induction
- optimum concentration for vector induction (HEK293T cells [1]): 3.2e-05 mM
- titre relative to the no-induction control (HEK293T cells [1]): approximately 4 fold

Molecule: O=C(CCCCCCC(=O)Nc1ccccc1)NO [SAHA, suberanilohydroxamic acid]
- concentration giving optimum vector production (HEK293T cells [3]): 0.0025 mM
- optimum concentration for vector induction (HEK293T cells [1]; single agent, FIG. 4): 0.001 mM

Molecule: CC(/C=C/C(=O)NO)=C\[C@@H](C)C(=O)c1ccc(N(C)C)cc1 [TSA]
- effect on vector titre (HEK293T cells [3]): failed to improve vector titres

Molecule: O=C(OC[C@H]1O[C@@H](OC(=O)c2cc(O)c(O)c(OC(=O)c3cc(O)c(O)c(O)c3)c2)[C@H](OC(=O)c2cc(O)c(O)c(OC(=O)c3cc(O)c(O)c(O)c3)c2)[C@@H](OC(=O)c2cc(O)c(O)c(OC(=O)c3cc(O)c(O)c(O)c3)c2)[C@@H]1OC(=O)c1cc(O)c(O)c(OC(=O)c2cc(O)c(O)c(O)c2)c1)c1cc(O)c(O)c(OC(=O)c2cc(O)c(O)c(O)c2)c1 [Tannic acid, tannic acid]
- effect on vector titre (HEK293T cells [3]): no measurable vector production

Molecule: CC(=O)O[C@@]12C[C@@H](C)[C@@]3(O)[C@@H](C=C(CO)C[C@]4(O)C(=O)C(C)=C[C@@H]34)[C@@H]1C2(C)C [prostratin, 12-Deoxyphorbol-13-acetate]
- effect on vector titre (HEK293T cells [3]): highest vector induction
- titre relative to the no-induction control (HEK293T cells [1]): approximately 4 fold
- increase of MFI from GFP FACS of transduced cells (HEK293T cells [1]; 16 μM prostratin at induction, residual 0.4 μM after 40-fold vector dilution): 26%
- MFI from GFP FACS of transduced cells (HEK293T cells [1]; 0.5 to 8 μM prostratin at induction): not observed to change
- optimum concentration for vector induction (HEK293T cells [1]; single agent, FIG. 4): 0.016 mM
- increase in vector titre (HEK293T cells [2]; 10 μM prostratin in combination with 10 mM sodium butyrate): 92%
- effect on induction of increasing prostratin from 1 to 10 μM (HEK293T cells [2]; throughout all the tested HDAC inhibitors, FIG. 6): positive enhancement of induction
- effect on titre of addition alongside HDACi (HEK1.65s cells [4]; prostratin 4-8 μM with HDACi, nearly all cases): increased titres
- increase of LV titre above optimum sodium butyrate (8 mM) alone (HEK1.65s cells [5]; 11 μM prostratin with 8 mM sodium butyrate, DOE model optimum): 1.93 fold and ~2 fold
- increase of GFP-HIV LV titres in combination with HDAC inhibitors (HEK1.65s cells [5]; Example 3 as summarised in Example 4, 24-well plate scale): ≥ 2 fold
- effect on titre in combination with sodium butyrate (HEK1.65s cells [5]; FIG. 8): marked positive effect on titre
- lowest concentrations causing an increase in titre (HEK1.65s cells [5]; in combination with sodium butyrate): 2 to 4 µM
- optimum predicted concentration of combined induction agents (HEK1.65s cells [5]): 11 µM
- increase in vector titre compared to the no induction control (HEK1.65s cells [5]; prostratin alone at 8-16 μM): ~13 fold and > 10 fold
- inducing effect relative to optimum sodium butyrate (HEK1.65s cells [5]; prostratin alone at 8-16 μM): approximately half the inducing effect of optimum sodium butyrate concentrations
- Cell Viability (%) (HEK1.65s cells [6]; 2 μM prostratin, condition 3, vector production period of 48 hours): 79.4%
- Δ (cell viability vs No Induction Control) (HEK1.65s cells [6]; 2 μM prostratin, condition 3): +0.6
- Cell Viability (%) (HEK1.65s cells [6]; 16 μM prostratin, condition 9, vector production period of 48 hours): 82.2%
- Δ (cell viability vs No Induction Control) (HEK1.65s cells [6]; 16 μM prostratin, condition 9): +3.4
- Cell Viability (%) (HEK1.65s cells [6]; 32 μM prostratin, condition 45, vector production period of 48 hours): 79.8%
- Δ (cell viability vs No Induction Control) (HEK1.65s cells [6]; 32 μM prostratin, condition 45): +1
- effect on cell viability (HEK1.65s cells [6]; prostratin 2-32 μM, vector production period of 48 hours): did not present any further loss in cell viability; also recorded: little cytotoxic effect; also recorded: no decrease in cell viability
- vector titre relative to induction with sodium butyrate alone (HEK1.65s cells [7]): 2.4- to 2.9 fold
- effect of residual prostratin on titres from the integration assay (HEK1.65s cells [8]): identical titres
- titres of MSD-mutated LV with Prostratin and 256U1 applied together ([9]; 11 μM Prostratin + 256U1 co-transfection, versus standard LV without inducers): higher that standard LV production titres; also recorded: increased higher than standard SIN-LV vectors
- increase in titres of MSD-mutated LV vectors ([9]; 11 μM Prostratin added at the sodium butyrate step, HIV-MSD2KOm5-EFS-GFP or -EF1a-GFP, FIG. 15): 5-10 fold
- effect on titres of MSD-mutated and standard SIN-LV [9, 14]: boosted titres
- titre increase compared to standard production control, CAR #1 vector (HEK1.65s cells [10]; [15]): 125 fold
- titre increase compared to standard production control, CAR #2-T2A-GFP vector (HEK1.65s cells [10]; [15]): 4.5 fold
- titre increase compared to standard production control, CAR #2 vector (HEK1.65s cells [10]; [15]): 7.9 fold
- titre increase compared to standard production control, CAR #1 vector (HEK1.65s cells [10]; [16]): 24 fold
- titre increase compared to standard production control, CAR #2-T2A-GFP vector (HEK1.65s cells [10]; [16]): 2 fold
- titre increase compared to standard production control, CAR #2 vector (HEK1.65s cells [10]; [16]): 2.6 fold
- increase in EIAV-CMV-GFP titre compared to the control titre (HEK1.65s cells [11]; [14]): 2 fold
- EIAV-CMV-GFP vector titre at harvest (HEK1.65s cells [11]; 11 μM prostratin with 10 mM sodium butyrate at induction): 9.1E+05 TU/mL
- induction of GFP transgene expression from constitutive promoters [12]: induction of expression from the promoters; also recorded: clear induction

Molecule: CCCC(=O)[O-].[Na+] [sodium butyrate]
- concentration giving optimum vector production (HEK293T cells [3]): 5 mM
- inducing effect on LV titre among HDAC inhibitors (HEK1.65s cells [4]): highest LV titres
- optimum predicted concentration of combined induction agents (HEK1.65s cells [5]): 8000 µM
- Cell Viability (%) (HEK1.65s cells [6]; 10 mM sodium butyrate, condition 35, vector production period of 48 hours): 74.8%
- Δ (cell viability vs No Induction Control) (HEK1.65s cells [6]; 10 mM sodium butyrate, condition 35): −4
- loss in cell viability (HEK1.65s cells [6]; sodium butyrate treated cells, vector production period of 48 hours): 4%

Molecule: CCCC(CCC)C(=O)[O-].[Na+] [sodium valproate]
- concentration giving optimum vector production (HEK293T cells [3]): 10 mM
- optimum concentration for vector induction (HEK293T cells [1]; single agent, FIG. 4): 10 mM
- inducing effect on LV titre among HDAC inhibitors (HEK1.65s cells [4]): some inducing effect

Molecule: CCCCC(=O)O [valeric acid]
- concentration giving optimum vector production (HEK293T cells [3]): 20 mM
- optimum concentration for vector induction (HEK293T cells [1]; single agent, FIG. 4): 10 mM
- inducing effect on LV titre among HDAC inhibitors (HEK1.65s cells [4]): some inducing effect

B1: 256U1: modified U1 snRNA targeting nt256-270 (SL1 loop) of the HIV-1 packaging signal; expression construct SEQ ID NO: 22 (nucleic acid)
DNA: TAAGGACCAGCTTCTTTGGGAGAGAACAGACGCAGGGGCGGGAGGGAAAAAGGGAGAGGCAGACGTCACTTCCCCTTGGCGGCTCTGGCAGCAGATTGGTCGGTTGAGTGGCAGAAAGGCAGACGGGGACTGGGCAAGGCACTGTCGGTGACATCACGGACAGGGCGACTTCTATGTAGATGAGGCAGCGCAGAGGCTGCTGCTTCGCCACTTGCTGCTTCACCACGAAGGAGTTCCCGTGCCCTGGGAGCGGGTTCAGGACCGCTGATCGGAAGTGAGAATCCCAGCTGTGTGTCAGGGCTGGAAAGGGCTCGGGAGTGCGCGGGGCAAGTGACCGTGTGTGTAAAGAGTGAGGCGTATGAGGCTGTGTCGGGGCAGAGGCCCAAGATCTCATTTGCCGTGCGCGCTTGCAGGGGAGATACCATGATCACGAAGGTGGTTTTCCCAGGGCGAGGCTTATCCATTGCACTCCGGATGTGCTGACCCCTGCGATTTCCCCAAATGTGGGAAACTCGACTGCATAATTTGTGGTAGTGGGGGACTGCGTTCGCGCTTTCCCCTGGTTTCAAAAGTAGACTGTACGCTAAGGGTCATATCTTTTTTTGTTTTGGTTTGTGTCTTGGTTGGCGTCTTAAATGTTAA
modifications: DNA-based expression constructs for the modified U1 snRNAs
- titre increase compared to standard production control, CAR #1 vector (HEK1.65s cells [10]; [16]): 46 fold
- titre increase compared to standard production control, CAR #2-T2A-GFP vector (HEK1.65s cells [10]; [16]): 2.7 fold
- titre increase compared to standard production control, CAR #2 vector (HEK1.65s cells [10]; [16]): 2.5 fold
- effect on lentiviral vector titres (HEK293T cells [13]): capable of increasing lentiviral vector titres
